{"source": "patent US9394520B2", "about": "“Expansion of hematopoietic stem cells” (University of Rochester, priority 2006, dated 2016)", "key": {"[1]": {"system": "Jagged1", "assay": "Jagged1 mRNA by real time RT-PCR in UMR106 cells", "type": "cell-based", "details": "UMR106 cells, PGE2 10^−7 M, at 2 hours, corrected for beta-actin", "description": "UMR 106 cells were serum starved for 24 hours and then treated with a single dose of vehicle (controls) or PGE2 at a concentration of 10^-7 M. RNA was collected from both control and treated samples to assess the fold change in Jagged1 mRNA by real time RT-PCR analysis corrected for by beta-actin. FIG. 1B is a Western blot showing total protein that was collected from both control and treated samples exposed to Jagged1 antibody, C20. Positive control (+ctr) was provided by HS27a cells, a human stromal cell line with high levels of Jagged1 protein, while HS5 cells from a human stromal cell line with minimal Jagged1 levels were used as a negative control. […] UMR106 cells were serum starved for 24 hours. They were pre-treated with H89 for 30 minutes followed by a single dose of PGE2 at 10^-7 M or vehicle. RNA was collected from both control and treated samples to assess the fold change in Jagged1 RNA by real time RT-PCR analysis corrected for by β-actin. […] UMR106 cells were serum starved for 24 hours. […] Total protein was collected from both PGE2 and vehicle treated samples for Western blot analysis with Jagged1 antibody C-20. UMR106 cells were grown in DMEM supplemented with 1.5 g/l sodium bicarbonate, 10% FBS, penicillin (100 U/ml), streptomycin (100 U/ml). After three days of growth the cells were 80% confluent and media was replaced with serum-free media. After 24 hr in serum-free media, PGE2 was added in noted concentrations. UMR 106 cells were treated with the Protein Kinase A (PKA) inhibitors H89 (0.5 hr prior to PGE2 treatment), and myristoylated PKI (0.5 hr prior to PGE2 treatment). […] At the designated times, total RNA and protein were harvested. Total RNA was extracted and analyzed by real time RT-PCR, normalizing for β-actin expression and t=0. Total protein was analyzed by Western blots performed using the […] system (Invitrogen, Carlsbad, Calif.). Blots were probed with Jag1 c-20 antibody (Santa Cruz Biotechnology, Inc., Santa Cruz, Calif.), and the loading control was B-actin."}, "[2]": {"system": "hematopoietic stem cells", "assay": "HSC frequency by flow cytometric analysis of lin-, sca+, kit+ (LSK/KSL) bone marrow cells", "type": "in vivo, mice", "description": "FIG. 7A is a graph showing KSL frequency at 4 days. FIG. 7B is a graph showing KSL frequency at 8 days. FIG. 7C is a graph showing KSL frequency at 12 days. FIG. 7D is a graph showing KSL frequency at 16 days.\nFIG. 9 is a graph showing the percent of HSCs in total bone marrow following in vivo administration of PGE2 in C57bl/6 mice. Eight to ten week old WT C5bl/6 mice given IP injections twice daily for 16 days of either 6 mg/kg PGE2 or vehicle (n=4 for each group). The left hind limb of each mouse was harvested, the bone marrow flushed out and the cells stained with lineage markers, sca-1 and c-kit. DAPI was used for a viability stain. The lin−, sca+, kit+ population was gated using FlowJo software for both PGE2 treated and vehicle treated samples. There was a 66% increase in lin−, sca+, kit+ (LSK) cells in PGE2 vs. vehicle treated mice (p=0.0093). As used herein, LSK and KSL frequency are used interchangeably.\nEight to ten week old FVB/N male mice were injected intraperitoneally once or twice daily for 16 days with either PGE2 (6 mg/kg body weight) or vehicle. Left hind limbs were harvested, fixed, decalcified, and processed. Right hindlimbs were harvested at the same time. The bone marrow was flushed and stained for FACS analysis with scal, ckit, and lineage marker antibodies.\nIn order to determine if the number of HSCs was increased in vivo by PGE2, eight to ten week old FVB/N mice were given daily IP injections for 16 days of either 6 mg/kg PGE2 or Vehicle. The left hind limb of each mouse was harvested, the bone marrow was flushed out, and the cells were stained with lineage markers, sca-1 and c-kit. DAPI was used for a viability stain. The lin−sca+ckit+population was gated using FlowJo software (FlowJo, Ashland, Oreg.) for both PGE2 treated and VEH treated samples. […] The same procedure was performed on C57bl/g mice."}, "[3]": {"system": "HSC subsets", "assay": "LSK subset analysis based on Flt3 and Thy1.1 expression", "type": "in vivo, mice", "description": "FIGS. 12A and 12B are representative plots of flow cytometric strategy of LSK subset from bone marrow of individual vehicle and PGE2-treated mice, numbers in the quadrant represent percentage of LSK.\nTo further confirm this targeted PGE2 effect, LSK subset analysis based on Flt3 and Thy1.1 expression was performed. […] (n=4 per treatment group)."}, "[4]": {"system": "ST-HSC", "assay": "Competitive repopulation in lethally irradiated recipients", "type": "in vivo, mice", "details": "donor CD45.2 to competitor CD45.1 1:2, effect limited to short-term (up to 6 weeks)", "description": "FIGS. 11A, 11B and 11C are graphs showing engraftment data from peripheral blood from competitive repopulation analysis from CD45.2+c57bl/6 mice treated daily with PGE2 (6 mg/kg i.p. twice daily) (n=8 mice per treatment group, n=10 recipient mice per group, 2 experiments).\nThis effect was limited to the short-term (up to 6 weeks) (FIGS. 11A, 11B and 11C), illustrating specific ST-HSC expansion. This is a unique in vivo model of selective ST-HSC increase. This effect is best illustrated by the short lived CD11b+myeloid subset (FIGS. 11A, 11B and 11C)."}, "[5]": {"system": "bone", "assay": "Bone analysis (microCT, histology) of PGE2-treated mice", "type": "in vivo", "procedure": "FIG. 6A is a graph showing quantification of bone volume performed by microCT analysis of femora from mice treated with PGE2 (6 mg/kg i.p. daily for 16 days (n=8)).\nAdult C57Bl/6 male mice were treated with PGE2 for 16 days."}, "[6]": {"system": "ST-HSC / LT-HSC activity", "assay": "Colony Forming Unit-Spleen (CFU-S) assay", "type": "in vivo, mice", "from_the_text": "FIG. 13A show CFU-S images of selected spleens after fixation. FIGS. 13B and 13C are graphs showing quantification of colonies per spleen at days 8 (FIG. 13B) and 10 (FIG. 13C) after transplantation.\nST vs LT-HSC activity can also be quantified by the in vivo clonogenic Colony Forming Unit-Spleen (CFU-S) assay, where day 8 CFU-S is closely associated with ST-HSC, while day 10-12 CFU-S are associated with LT-HSC activity."}}, "note": "Entries after “also recorded” stand apart in the source; their conditions may differ."}
{"smiles": "CCCCC[C@H](O)/C=C/[C@H]1[C@H](O)CC(=O)[C@@H]1C/C=C\\CCCC(=O)O", "note": "[PGE2, Prostaglandin E2]", "values": [{"measurement": "Jagged1 mRNA increase compared to vehicle", "setting": "[1]", "value": "up to 5 fold"}, {"measurement": "increase in lin−, sca+, kit+ (LSK) cells vs. vehicle", "setting": "[2]; C57bl/6 mice, 6 mg/kg IP twice daily for 16 days, n=4", "value": 66, "unit": "%"}, {"measurement": "percent of HSCs (KSL) in total bone marrow", "setting": "[2]; FVB/N mice, 6 mg/kg IP daily, 4 to 16 days, vs vehicle, 6 mg/kg", "value": "trend towards an increase; also recorded: increased significantly"}, {"measurement": "increase of HSC enriched LSK subpopulation", "setting": "[2]; adult C57Bl/6 male mice, 16 days, n=8 per group", "value": 3.5, "unit": "fold"}, {"measurement": "MPP (Flt3+Thy1.1- LSK) quantification from bone marrow", "setting": "[3]; n=4, p 0.007 vs vehicle", "value": "0.0305 ± 0.002398"}, {"measurement": "ST-HSC (Flt3+Thy1.1int LSK) quantification from bone marrow", "setting": "[3]; n=4, p 0.0307 vs vehicle", "value": "0.02725 ± 0.003568"}, {"measurement": "LT-HSC (Flt3−Thy1.1int LSK) quantification from bone marrow", "setting": "[3]; n=4, p 0.1069 (NS) vs vehicle", "value": "0.01264 ± 0.002233"}, {"measurement": "multilineage reconstitution by donor cells from treated mice", "setting": "[4]", "value": "superior multilineage reconstitution"}, {"measurement": "bone anabolic effect in long bones, histologically or by micro-CT imaging", "setting": "[5]; adult C57Bl/6 male mice, 16 days", "value": "no evidence of a significant bone anabolic effect"}, {"measurement": "bone volume by microCT analysis", "setting": "[5]; adult FVB/N male mice, 6 mg/kg/day i.p., day 12", "value": "no significant increase"}, {"measurement": "cortical width of the tibia", "setting": "[5]; in vivo treatment with PGE2", "value": "significantly increased"}, {"measurement": "tibial metaphyseal trabecularization", "setting": "[5]; in vivo treatment with PGE2", "value": "increased"}, {"measurement": "CFU-Sd8", "setting": "[6]; day 8, BMMC from treated mice, n=4, p=0.0053", "value": "10.5 CFU-S per 60,000 BMMC"}, {"measurement": "CFU-Sd10", "setting": "[6]; day 10, BMMC from treated mice, n=6, p=0.4950", "value": "12.5 CFU-S per 60,000 BMMC"}]}
